Laboratory results from publication PMC4335020, “Single Oral Dose Pharmacokinetics of Decursin and Decursinol Angelate in Healthy Adult Men and Women” (PLoS ONE, 2015).
Read-outs that look alike come from different tables or passages of the source.

Assay: Single oral dose human plasma pharmacokinetics of D, DA and DOH after Cogni.Q
Assay type: in vivo
Settings: for Cmax / Tmax / half-life / AUC(0-t): plasma
Excerpt: Ten healthy male and 10 female subjects were recruited by public announcement in Amarillo, TX, from January 2013 to April 2013 (see Fig. 1 CONSORT diagram). The sample size for each gender was chosen without power calculation due to the lack of prior knowledge of PK parameter variance in humans. After receiving informed consent verbally and in writing, the health status of each candidate was confirmed by health questionnaire, plasma biochemistry (hepatic and renal functions), complete blood cell count (CBC), and a physical examination by a participating academic physician. Subjects with diabetes, or pregnant, perinatal and breastfeeding women were excluded. For the 48 hours preceding study visit until the final blood draw, all subjects were instructed to avoid taking any prescription or nonprescription drugs, vitamins, and herbal/dietary supplements. Each subject was compensated for participating in the study per TTUHSC IRB approved rate.
Eligible subjects arrived at our clinical facility at 0700 (7:00 am) on the test day after a fast beginning at 2200 (10:00 pm) the previous night. After a brief review of vital signs, the nurse placed an intravenous (IV) line with saline drip in one arm of each subject. A baseline pre-dose (hour 0) blood sample was drawn through the IV line; after that subjects swallowed four Cogni.Q vegicaps with 240 mL of water at hour 0 under direct supervision. Subjects stayed at the clinical facility in their room for the next 12 hours, returning at 24 and 48 hours. Blood was drawn at baseline (hour 0) and at 0.5, 1, 2, 3, 4, 6, 8, 12, 24 and 48 hours after dosing into Vacutainer Blood Collection Tube (Becton-Dickinson, Franklin Lakes, NJ. Product Number: 367874, Sodium heparin was used as anti-coagulant). Water was allowed as desired except for within the first hour after Cogni.Q consumption. All subjects received standardized meals at post-dose hours 4.5 and 9.5 but no food was allowed for at least the first 4 hours post-dose.
Plasma was prepared by centrifuging the heparinized blood at 1000 g for 15 minutes at room temperature. Urine samples (40mL) were collected within time spans of 0–4, 4–8, 8–12 and 12–24 hours (total volume of urine was recorded). All plasma and urine samples were put on dry ice immediately and then stored at -80°C freezer until analysis.
Plasma samples were extracted with a validated solid supported liquid extraction (SLE) method facilitated with a positive pressure manifold (Biotage, Charlotte, NC). Briefly, 100 μL of plasma sample was spiked with 5 μL of 10 ng/μL prednisolone (IS), diluted with 200 μL of LC-MS grade water, mixed and loaded onto ISOLUTE SLE+ 400 μL Array Well cartridges (Biotage, Charlotte, NC). A pulse of minimum positive pressure was applied to facilitate the samples absorption into the cartridges. After the samples were allowed to absorb for 5 min, the compounds were eluted with 2×500 μL tert-butyl methyl ether. The eluent was dried in a Speedvac and the resulting residue was reconstituted in 50 μL of methanol for UHPLC-MS/MS analysis.
Eight-point calibration curves were constructed for D, DA and DOH, at concentrations of 0.1, 0.5, 1, 5, 10, 20, 50 and 100 μg/L for D and DA, and at concentrations of 1, 5, 10, 50, 100, 200, 500 and 1000 μg/L for DOH, respectively. The linear range was 0.1–100 μg/L (0.3–300 nmol/L), 0.1–100 μg/L (0.3–300 nmol/L) and 1–1000 μg/L (4–4000 nmol/L) for D, DA and DOH, respectively. The inter- and intra-assay CV were lower than 6.5% and the accuracy was between 90–105%. Calibration curve was run for each batch of samples analyzed. The mean calibration curve correlation coefficient (r) for D, DA and DOH was 0.999, 0.999 and 0.998, respectively (data from 7–10 calibration curves). In addition, 70% of the plasma samples were extracted and analyzed twice, the data from two replicate analyses were nearly identical and combined for final data analyses and presentation. […]

Cmax (all human subjects n = 20, single oral dose 4 Cogni.Q vegicaps (119 mg D, 77 mg DA), read-out: Cmax, nmol/L Mean (SD)): 48.1 nmol/L
variation in C max and AUC0–48h among individual subjects (all subjects): ≤ 60 fold
Cmax (both sexes, human, oral, 4 Cogni.Q vegicaps, n=20 (S1 Table), read-out: Cmax, nM, Grand Mean): 48.1 nmol/L
Tmax (both sexes, human, oral, 4 Cogni.Q vegicaps, n=20 (S1 Table), read-out: Tmax, h, Grand Mean): 2.4 h
half-life (both sexes, human, oral, all subjects, outliers excluded (S1 Table), read-out: Terminal t1/2, h, Grand Mean (converted)): 19.3 h
AUC(0-t) (both sexes, human, oral, n=20 (S1 Table), read-out: AUC0-48h, Grand Mean): 335 nmol·h/L
Cmax (both sexes, human, po, all human subjects n = 20, single oral dose 4 Cogni.Q vegicaps (119 mg D, 77 mg DA), read-out: Cmax, nmol/L Mean (SD)): 48 nmol/L
Tmax (both sexes, human, po, all human subjects n = 20, single oral dose 4 Cogni.Q vegicaps (119 mg D, 77 mg DA), read-out: Tmax, h, Mean (SD)): 2.4 h
AUC(0-t) (both sexes, human, po, all human subjects n = 20, single oral dose Cogni.Q, plasma (Table 2), read-out: AUC0–48h, nmol/L, Mean (SD)): 335 nmol·h/L
half-life (both sexes, human, po, all human subjects, four outlier subjects excluded, single oral dose Cogni.Q, read-out: Terminal t1/2, h, Mean (SD) (converted)): 19.3 h
AUC(0-t) (both sexes, human, po, twenty healthy subjects, single oral dose Cogni.Q, plasma (abstract), read-out: mean area under the curve (AUC0-48h)): 335 nmol·h/L
AUC(0-t) (female, human, oral, 4 Cogni.Q vegicaps, Women n=10 (S1 Table), read-out: AUC0-48h, Mean, F): 344 nmol·h/L
Cmax (female, human, oral, 4 Cogni.Q vegicaps, Women n=10 (S1 Table), read-out: Cmax, nM, Mean, F): 43.9 nmol/L
Tmax (female, human, oral, Women n=10 (S1 Table), read-out: Tmax, h, Mean, F): 2.7 h
half-life (female, human, oral, Women, outliers excluded (S1 Table), read-out: Terminal t1/2, h, Mean, F (converted)): 23.7 h
AUC(0-t) (female, human, po, Women N = 10, single oral dose Cogni.Q, read-out: AUC0–48h, h.nmol/L Mean (SD)): 344 nmol·h/L
Cmax (female, human, po, Women N = 10, single oral dose Cogni.Q, read-out: Cmax, nmol/L, Mean (SD)): 43.9 nmol/L
Tmax (female, human, po, Women N = 10, single oral dose Cogni.Q, read-out: Tmax, h, Mean (SD)): 2.7 h
half-life (female, human, po, Women, outlier subjects excluded, single oral dose Cogni.Q, read-out: T1/2, h, terminal Mean (SD) (converted)): 23.7 h
half-life (human, oral, 4 Cogni.Q vegicaps, subject S1 (115 lb), outlier, excluded from means, read-out: Terminal t1/2, h (converted)): 20.2 h
AUC(0-t) (human, oral, 4 Cogni.Q vegicaps, subject S1 (115 lb), read-out: AUC0-48h): 190 nmol·h/L
Cmax (human, oral, 4 Cogni.Q vegicaps, subject S1 (115 lb), read-out: Cmax): 23.4 nmol/L
Tmax (human, oral, 4 Cogni.Q vegicaps, subject S1 (115 lb), read-out: Tmax): 2 h
AUC(0-t) (human, oral, 4 Cogni.Q vegicaps, subject S2 (194 lb), read-out: AUC0-48h): 97.5 nmol·h/L
Cmax (human, oral, 4 Cogni.Q vegicaps, subject S2 (194 lb), read-out: Cmax): 13.4 nmol/L
half-life (human, oral, 4 Cogni.Q vegicaps, subject S2 (194 lb), read-out: Terminal t1/2, h (converted)): 38.6 h
Tmax (human, oral, 4 Cogni.Q vegicaps, subject S2 (194 lb), read-out: Tmax): 3 h
half-life (human, oral, 4 Cogni.Q vegicaps, subject S3 (170 lb), outlier, excluded from means, read-out: Terminal t1/2, h (converted)): 31.4 h
AUC(0-t) (human, oral, 4 Cogni.Q vegicaps, subject S3 (170 lb), read-out: AUC0-48h): 142 nmol·h/L
Cmax (human, oral, 4 Cogni.Q vegicaps, subject S3 (170 lb), read-out: Cmax): 27.2 nmol/L
Tmax (human, oral, 4 Cogni.Q vegicaps, subject S3 (170 lb), read-out: Tmax): 6 h
AUC(0-t) (human, oral, 4 Cogni.Q vegicaps, subject S4 (170 lb), read-out: AUC0-48h): 1060 nmol·h/L
Cmax (human, oral, 4 Cogni.Q vegicaps, subject S4 (170 lb), read-out: Cmax): 100 nmol/L
half-life (human, oral, 4 Cogni.Q vegicaps, subject S4 (170 lb), read-out: Terminal t1/2, h (converted)): 17.7 h
Tmax (human, oral, 4 Cogni.Q vegicaps, subject S4 (170 lb), read-out: Tmax): 2 h
AUC(0-t) (human, oral, 4 Cogni.Q vegicaps, subject S5 (161 lb), read-out: AUC0-48h): 294 nmol·h/L
Cmax (human, oral, 4 Cogni.Q vegicaps, subject S5 (161 lb), read-out: Cmax): 21.4 nmol/L
half-life (human, oral, 4 Cogni.Q vegicaps, subject S5 (161 lb), read-out: Terminal t1/2, h (converted)): 12 h
Tmax (human, oral, 4 Cogni.Q vegicaps, subject S5 (161 lb), read-out: Tmax): 1 h
AUC(0-t) (human, oral, 4 Cogni.Q vegicaps, subject S6 (120 lb), read-out: AUC0-48h): 696 nmol·h/L
Cmax (human, oral, 4 Cogni.Q vegicaps, subject S6 (120 lb), read-out: Cmax): 84.3 nmol/L
half-life (human, oral, 4 Cogni.Q vegicaps, subject S6 (120 lb), read-out: Terminal t1/2, h (converted)): 16.2 h
Tmax (human, oral, 4 Cogni.Q vegicaps, subject S6 (120 lb), read-out: Tmax): 3 h
AUC(0-t) (human, oral, 4 Cogni.Q vegicaps, subject S7 (180 lb), read-out: AUC0-48h): 432 nmol·h/L
Cmax (human, oral, 4 Cogni.Q vegicaps, subject S7 (180 lb), read-out: Cmax): 74.3 nmol/L
half-life (human, oral, 4 Cogni.Q vegicaps, subject S7 (180 lb), read-out: Terminal t1/2, h (converted)): 17.4 h
Tmax (human, oral, 4 Cogni.Q vegicaps, subject S7 (180 lb), read-out: Tmax): 4 h
AUC(0-t) (human, oral, 4 Cogni.Q vegicaps, subject S8 (160 lb), read-out: AUC0-48h): 1600 nmol·h/L
Cmax (human, oral, 4 Cogni.Q vegicaps, subject S8 (160 lb), read-out: Cmax): 183 nmol/L
half-life (human, oral, 4 Cogni.Q vegicaps, subject S8 (160 lb), read-out: Terminal t1/2, h (converted)): 16.7 h
Tmax (human, oral, 4 Cogni.Q vegicaps, subject S8 (160 lb), read-out: Tmax): 3 h
AUC(0-t) (human, oral, 4 Cogni.Q vegicaps, subject S9 (158 lb), read-out: AUC0-48h): 80.8 nmol·h/L
Cmax (human, oral, 4 Cogni.Q vegicaps, subject S9 (158 lb), read-out: Cmax): 13.6 nmol/L
half-life (human, oral, 4 Cogni.Q vegicaps, subject S9 (158 lb), read-out: Terminal t1/2, h (converted)): 19.1 h
SMILES: C/C=C(/C)C(=O)O[C@H]1Cc2cc3ccc(=O)oc3cc2OC1(C)C [DA, decursinol angelate]
